In US9365563B2, “TRPV1 antagonists including dihydroxy substituent and uses thereof” (Purdue Pharma L.P., priority 2007, dated 2016):
Read-outs that look alike come from different tables or passages of the source. Each block holds one compound with its values, some of them ahead of it.

Tests used:
[1] = tested on: FCA-induced inflammation of the rat hind paw; experiment: FCA model of inflammatory pain (thermal hyperalgesia, plantar test); type: in vivo; conditions: for ED50: read-out: ED50 for reversal of FCA-induced thermal hyperalgesia
Description: Each experiment uses rats weighing between 200-260 g at the start of the experiment. The rats are group-housed and have free access to food and water at all times, except prior to oral administration of a compound of formula I when food is removed for 16 hours before dosing. A control group acts as a comparison to rats treated with a compound of formula I. The control group is administered the carrier for the compound of formula I. The volume of carrier administered to the control group is the same as the volume of carrier and compound of formula I administered to the test group.
To assess the actions of the compounds of formula I on the treatment or prevention of inflammatory pain the Freund's complete adjuvant (“FCA”) model of inflammatory pain is used. FCA-induced inflammation of the rat hind paw is associated with the development of persistent inflammatory mechanical and thermal hyperalgesia and provides reliable prediction of the anti-hyperalgesic action of clinically useful analgesic drugs (L. Bartho et al., “Involvement of Capsaicin-sensitive Neurones in Hyperalgesia and Enhanced Opioid Antinociception in Inflammation,” Naunyn-Schmiedeberg's Archives of Pharmacol. 342:666-670 (1990)). The left hind paw of each animal is administered a 50 μL intraplantar injection of 50% FCA. 24 hour post injection, the animal is assessed for response to noxious mechanical stimuli by determining the PWT, or to noxious thermal stimuli by determining the PWL, as described below. […] Responses to noxious mechanical or thermal stimuli are then determined 1, 3, 5 and 24 hours post administration. […]
The plantar test can be used to assess thermal hyperalgesia. For this test, hind paw withdrawal latencies (PWL) to a noxious thermal stimulus are determined using a plantar test apparatus (commercially available from Ugo Basile of Italy) following the technique described by K. Hargreaves et al., “A New and Sensitive Method for Measuring Thermal Nociception in Cutaneous Hyperalgesia,” Pain 32(1):77-88 (1988). […] Three latencies are determined at each time point and averaged. […]

human TRPV1 [2] = target: T1, human TRPV1 (Homo sapiens (Human), UniProt Q8NER1); experiment: pH-based assay, Protocol 2 (hpH-CHO); type: cell-based; conditions: TRPV1/CHO cells, pH 5.0-5.1; mean ± SEM; read-out: TRPV1 IC50 Potency Human pH CHO (hpH-CHO)
T1 sequence (Q8NER1 whole entry): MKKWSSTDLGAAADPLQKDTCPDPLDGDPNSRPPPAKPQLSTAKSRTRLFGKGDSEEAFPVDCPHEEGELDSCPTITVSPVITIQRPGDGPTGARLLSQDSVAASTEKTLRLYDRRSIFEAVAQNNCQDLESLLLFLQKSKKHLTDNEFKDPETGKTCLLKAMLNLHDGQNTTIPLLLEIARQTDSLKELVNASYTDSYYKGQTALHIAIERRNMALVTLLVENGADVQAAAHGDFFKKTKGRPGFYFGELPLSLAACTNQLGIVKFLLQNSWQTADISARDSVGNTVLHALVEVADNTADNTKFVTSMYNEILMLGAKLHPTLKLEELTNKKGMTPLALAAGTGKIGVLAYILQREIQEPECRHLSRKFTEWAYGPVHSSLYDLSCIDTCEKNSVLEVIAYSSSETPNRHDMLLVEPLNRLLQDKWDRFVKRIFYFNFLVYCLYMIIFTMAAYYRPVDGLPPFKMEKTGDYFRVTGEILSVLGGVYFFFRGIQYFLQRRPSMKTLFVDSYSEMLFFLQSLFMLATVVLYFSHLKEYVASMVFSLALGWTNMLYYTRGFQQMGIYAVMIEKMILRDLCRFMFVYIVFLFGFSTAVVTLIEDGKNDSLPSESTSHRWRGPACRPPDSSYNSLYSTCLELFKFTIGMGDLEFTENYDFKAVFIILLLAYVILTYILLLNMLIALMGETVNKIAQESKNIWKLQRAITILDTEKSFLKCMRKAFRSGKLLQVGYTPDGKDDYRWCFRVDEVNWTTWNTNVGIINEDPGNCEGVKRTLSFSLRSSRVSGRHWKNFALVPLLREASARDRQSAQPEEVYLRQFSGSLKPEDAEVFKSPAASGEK
Description: For Protocol 2, a Chinese Hamster Ovary cell line (CHO) that has been engineered to constitutively express human recombinant TRPV1 was used (TRPV1/CHO cells). The TRPV1/CHO cell line was generated as described below.
The resulting PCR products were purified from agarose gels using Gel Band Purification Kit (GE Healthcare Bioscience) and were subcloned into pCR-Blunt vector (Invitrogen). The cloned cDNA was fully sequenced using a fluorescent dye-terminator reagent (BigDye Terminator ver3.1 Cycle Sequencing Kit, Applied Biosystems) and ABI Prism 3100 genetic analyzer (Applied Biosystems). The pCR-Blunt vector containing the hTRPV1 cDNA was subjected to restriction digestion with EcoR1. […] The sequence of the cDNA encoding TRPV1 is available at GenBank accession number AJ277028.
CHO-K1 cells were maintained in growth medium consisting of α-MEM, 10% FBS (Hyclone), and 100 IU/mL of penicillin-100 μg/mL of streptomycin mixed solution (Nacalai Tesque, Japan) at 37° C. in an environment of humidified 95% air and 5% CO2. […] 24 hr after transfection, neomycin-resistant cells were selected using 1 mg/mL G418 (Nacalai Tesque). […]
(5) The Fura-2 fluorescent intensity was monitored at a wavelength of 340 nm and at 380 nm, respectively, at a rate of 0.5 Hz for a total of 240 seconds.

Aqueous solubility = type: physicochemical
[3] = Bioavailability following oral administration; type: in vivo
[4] = Plasma concentration after administration to an animal; type: in vivo
human TRPV1 [5] = target: T1, human TRPV1; experiment: Capsaicin-based assay, Protocol 2 (hCAP-CHO); type: cell-based; conditions: TRPV1/CHO cells, 100 nM capsaicin; mean ± SEM; read-out: TRPV1 IC50 Potency Human Capsaicin CHO (hCAP-CHO)
Description: The TRPV1/CHO cell line was generated as described below. […] The resulting PCR products were purified from agarose gels using Gel Band Purification Kit (GE Healthcare Bioscience) and were subcloned into pCR-Blunt vector (Invitrogen). The cloned cDNA was fully sequenced using a fluorescent dye-terminator reagent (BigDye Terminator ver3.1 Cycle Sequencing Kit, Applied Biosystems) and ABI Prism 3100 genetic analyzer (Applied Biosystems). The pCR-Blunt vector containing the hTRPV1 cDNA was subjected to restriction digestion with EcoR1. The restriction fragment was subcloned into expression vector pcDNA3.1(-) (Invitrogen) and named pcDNA3.1(-)-hVR1 plasmid. The sequence of the cDNA encoding TRPV1 is available at GenBank accession number AJ277028. […] The cells were transfected with the pcDNA3.1(-)-hVR1 plasmid using FuGENE6 (Roche) according to the manufacturer's protocol. 24 hr after transfection, neomycin-resistant cells were selected using 1 mg/mL G418 (Nacalai Tesque). […] The cells expressing hTRPV1 were cultured in the growth medium supplemented with 1 mg/mL G418. […] Subsequently, the cells were loaded by incubation in 0.1 mL of wash buffer containing Fluo-4 at 3 μM final concentration. After 1 hour, the cells were washed twice with 0.2 mL wash buffer and resuspended in 0.1 mL wash buffer. The plates were then transferred to a Fluorescence Imaging Plate Reader (Molecular Devices). Fluorescence intensity was monitored for 15 seconds to establish a baseline. […] The final concentration of the compound was adjusted to range from 100 μM to 1.5625 μM. […] Data were collected over the entire time course and analyzed using Excel and the curve-fitting formula GraphPad Prism.

SMILES: O=C(Nc1ccc(C(F)(F)F)c(Cl)c1)N1CC=C(c2ncc([C@H](O)CO)cc2Cl)CC1 [Compound D2, (S)-3-Chloro-5-(1,2-dihydroxy-ethyl)-3′,6′-dihydro-2′H-[2,4]bipyridinyl-1′-carboxylic acid (3-chloro-4-trifluoromethyl-phenyl)amide]
ED50 ([1]; 3 hours after administration): 0.95 mg/kg
maximum % reversal of FCA-induced thermal hyperalgesia ([1]; 5 hours after administration): 78.7%
ED50 ([1]; 5 hours after administration): 1.63 mg/kg

IC50 (human TRPV1 [2]): 164 nM
aqueous solubility at pH 1.2 (Aqueous solubility; pH 1.2): 27.2 μM
aqueous solubility at pH 6.8 (Aqueous solubility; pH 6.8): 9.0 μM
SMILES: N#CCc1cnc(C2=CCN(C(=O)Nc3ccc(C(F)(F)F)cc3)CC2)c(Cl)c1 [Compound E6, 4-(3-chloro-5-(cyanomethyl)pyridin-2-yl)-N-(4-(trifluoromethyl)phenyl)-5,6-dihydropyridine-1(2H)-carboxamide]

bioavailability ([3]; in vivo, read-out: bioavailable following oral administration): 70.7%
SMILES: O=C(Nc1ccc(C(F)(F)F)cn1)N1CCC(F)(c2ncc([C@H](O)CO)cc2Cl)CC1 [Compound G1]

time to maximum plasma concentration after administration ([4]; animal plasma): 1.85 h
maximum plasma concentration relative to the maximum for compound 200 ([4]; animal plasma, for a given dose): 5.3 times
plasma concentration up to 24 h compared with compound 200 ([4]; up to 24 h): consistently greater
bioavailable following oral administration [3]: 68.9%
SMILES: CC(O)(CO)c1cnc(C2=CCN(C(=O)Nc3ccc(C(F)(F)F)cc3)CC2)c(Cl)c1 (stereo not shown) [Compound R6]

SMILES: O=C(Nc1ccc(OC(F)(F)F)c(Cl)c1)N1CC=C(c2ncc([C@H](O)CO)cc2Cl)CC1 [Compound Y1, (S)-3-Chloro-5-(1,2-dihydroxy-ethyl)-3′,6′-dihydro-2′H-[2,4]bipyridinyl-1′-carboxylic acid (3-chloro-4-trifluoromethoxy-phenyl)amide]
IC50 (human TRPV1 [5]): 74.7 ± 18.4 nM
IC50 (human TRPV1 [2]): 13.5 ± 1.2 nM
